In one test the target is T1, Gal4 PPARδ (Homo sapiens, UniProt Q03181).
T1 construct: expressed in transfected cells; host or cells: CV1 (African green monkey kidney)
T1 sequence (Q03181 211-439 limits assumed): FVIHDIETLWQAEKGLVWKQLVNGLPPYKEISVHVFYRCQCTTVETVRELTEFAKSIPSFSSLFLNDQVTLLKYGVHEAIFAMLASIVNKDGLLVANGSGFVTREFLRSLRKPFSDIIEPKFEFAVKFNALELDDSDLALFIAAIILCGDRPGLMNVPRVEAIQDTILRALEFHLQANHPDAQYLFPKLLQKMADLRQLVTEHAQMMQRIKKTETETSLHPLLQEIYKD
Put plainly: Gal4 PPARδ reporter functional assay in CV1 cells. Type of test: cell-based. To be noted: examined up to 10 μM, luciferase reporter, 24 hours. An excerpt:
Gal4 PPARα, Gal4 PPARδ, and PPARγ reporter functional assays are also used to monitor the selectivity of exemplified compounds. CV1 cells, which are derived from the renal tissue of an African green monkey, are transfected with various receptor and reporter plasmids using Fugene. For the Gal4 PPARα and PPARδ assays, a reporter plasmid containing five tandem copies of the yeast transcription protein Gal4 response element, cloned upstream of a firefly luciferase gene driven by the major late promoter of adenovirus, is transfected together with a Simian Virus 40 (SV40) driven plasmid constitutively expressing a hybrid protein containing the Gal4 DNA binding domain (DBD), and either the PPARα or PPARδ ligand binding. For the PPARγ assay, plasmids encoding PPARγ and RXRα, both driven by a cytomegalovirus (CMV) promoter are transfected together with a plasmid containing luciferase reporter cDNA driven by the TK promoter and a receptor response element (2×PPRE). Cells are transfected in T225 cm^2 cell culture flasks in DMEM media with 5% charcoal-stripped FBS. […] After 24 hours incubation with compounds, cells are lysed and luciferase activity is determined as a measure of receptor activation by luminescence. […] The maximum percent stimulation is determined versus maximum stimulation obtained with 10 μM of an appropriate PPAR agonist reference compound. […]
(In general: A reporter such as luciferase makes a cellular process visible.)

The target in a further test is T2, PPARα (Homo sapiens, UniProt Q07869).
T2 construct: made in house; host or cells: HEK293 (cell lysates)
T2 sequence (Q07869 1-468): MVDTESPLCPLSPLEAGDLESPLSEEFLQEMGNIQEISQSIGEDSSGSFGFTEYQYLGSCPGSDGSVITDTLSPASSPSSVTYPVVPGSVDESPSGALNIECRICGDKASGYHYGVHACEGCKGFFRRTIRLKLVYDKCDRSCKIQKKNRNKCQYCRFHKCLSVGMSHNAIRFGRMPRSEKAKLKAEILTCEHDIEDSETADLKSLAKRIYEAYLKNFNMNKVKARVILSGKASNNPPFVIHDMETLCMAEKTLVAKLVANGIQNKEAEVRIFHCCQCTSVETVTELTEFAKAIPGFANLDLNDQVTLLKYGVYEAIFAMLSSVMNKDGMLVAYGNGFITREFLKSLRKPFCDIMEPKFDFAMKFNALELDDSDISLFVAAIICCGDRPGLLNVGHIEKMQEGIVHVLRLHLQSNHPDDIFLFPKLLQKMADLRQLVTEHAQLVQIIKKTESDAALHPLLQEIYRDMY
T2 sequence (P19793 1-462 partner): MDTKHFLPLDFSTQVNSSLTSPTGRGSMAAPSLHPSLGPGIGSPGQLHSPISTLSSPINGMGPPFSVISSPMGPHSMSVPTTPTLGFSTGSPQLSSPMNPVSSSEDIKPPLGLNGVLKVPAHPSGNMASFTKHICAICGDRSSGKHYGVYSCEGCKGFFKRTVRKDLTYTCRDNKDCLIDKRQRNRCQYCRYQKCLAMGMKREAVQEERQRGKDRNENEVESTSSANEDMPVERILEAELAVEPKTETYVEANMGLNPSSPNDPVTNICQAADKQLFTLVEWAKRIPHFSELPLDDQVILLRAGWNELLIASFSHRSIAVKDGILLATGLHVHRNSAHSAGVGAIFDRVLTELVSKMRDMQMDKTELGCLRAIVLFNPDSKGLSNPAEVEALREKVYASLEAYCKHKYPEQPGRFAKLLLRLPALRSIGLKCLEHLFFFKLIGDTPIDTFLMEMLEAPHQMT
Put plainly: PPARα binding assay (SPA). To be noted: concentrations up to 10 μM. The procedure: Because GPR40 is known to be activated by ligands to PPARγ exemplified compounds are examined in PPARα, PPARδ, and PPARγ binding and functional assays to determine the selectivity of exemplified compounds for GPR40. Compounds exemplified herein are tested essentially as described below for PPAR binding and generally have binding values greater than 1000 nM with 10 μM concentrations of test compound and are thus considered negative for PPAR activity.
Binding affinities of compounds for the PPAR α, δ, and γ receptors are assessed using Scintillation Proximity Assay (SPA) technology. Biotinylated oligonucleotide Direct Repeat 2 (DR2) is used for binding the receptors to Yttrium silicate streptavidin-coated SPA beads. […] Non-specific binding is determined in the presence of 10,000 nM of the unlabeled PPAR α/δ dual agonist reference compound for the alpha and delta receptor assays and the PPARγ agonist reference compound for the gamma receptor assay. The binding reaction (100 μl per well in a 96 well [Costar 3632] plate) is incubated for 10 h and counted disintegration per minutes (dpm) on a Wallac Microbeta. Receptor binding affinity (IC50) for the compounds is determined by fitting an 11 point concentration-response curve with a 4-paramater logistic equation. K, is determined from the IC50 using the Cheng-Prussoff equation and Kd determined by saturation binding. […]

Each structure is given as a SMILES string.

Consider `CC#C[C@@H](CC(=O)O)c1ccc(OCc2ccc(CN3CCC4(C=Cc5ccccc54)CC3)s2)cc1` [Example 1, (3S)-3-[4-[[5-(Spiro[indene-1,4′-piperidine]-1′-ylmethyl)-2-thienyl]methoxy]phenyl]hex-4-ynoic acid], for which, at Gal4 PPARδ, the “functional activation of PPARδ” value is on record as “No functional activation”. In addition, the PPARα binding result on PPARα was “no binding is detected”.

Values taken from patent US8822486B2, “Spiropiperidine compounds” (Eli Lilly and Company, priority 2009, dated 2014).
